In ChEMBL document CHEMBL1201862, “PubChem BioAssay data set” (2004):
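Growth conditions: 96-well plates. Treatment: test compound, 48 hours, 5 concentrations. Analysis: linear interpolation between bracketing concentrations; unreached endpoints set to highest concentration. Here, GI50 denotes the concentration required for 50% inhibition of growth.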 Calls of active or inactive are those of the source. Cut-off read from the data, not from the text of the source: active = GI50 up to about 1.1 µM and inactive = higher.

Tests used:
Test in all cases: NCI anticancer screen, dose series, 48 h
Malme-3M = tested on: Malme-3M
UO-31 = tested on: UO-31
RPMI-8226 = tested on: RPMI-8226
SF-295 = tested on: SF-295
MDA-N = tested on: MDA-N
COLO 205 = tested on: COLO 205
RXF 393 = tested on: RXF 393
SR = tested on: SR
IGROV-1 = tested on: IGROV-1
OVCAR-5 = tested on: OVCAR-5
A498 = tested on: A498
BT-549 = tested on: BT-549
MCF7 = tested on: MCF7
SK-OV-3 = tested on: SK-OV-3
UACC-62 = tested on: UACC-62
NCI-H226 = tested on: NCI-H226
NCI-H460 = tested on: NCI-H460
SK-MEL-2 = tested on: SK-MEL-2
Hs-578T = tested on: Hs-578T

Measured: GI50

Cn1ncc2c(NCc3ccccc3)ncnc21
inactive: Malme-3M > 100 µM | UO-31 > 100 µM | RPMI-8226 > 100 µM | SF-295 > 100 µM | MDA-N > 100 µM | COLO 205 > 100 µM | RXF 393 > 100 µM | SR > 100 µM | IGROV-1 > 100 µM | OVCAR-5 > 100 µM | A498 > 100 µM | BT-549 > 100 µM | MCF7 > 100 µM | SK-OV-3 > 100 µM | UACC-62 > 100 µM | NCI-H226 > 100 µM | NCI-H460 > 100 µM

Cc1cn(C2CC(n3cc(Cn4cc(F)c(=O)[nH]c4=O)nn3)C(CO)O2)c(=O)[nH]c1=O (configuration not stated)
inactive: SK-MEL-2 > 100 µM | Malme-3M > 100 µM | UO-31 > 100 µM | RPMI-8226 > 100 µM | SF-295 > 100 µM | MDA-N > 100 µM | COLO 205 > 100 µM | RXF 393 > 100 µM | Hs-578T > 100 µM | IGROV-1 > 100 µM | OVCAR-5 > 100 µM | A498 > 100 µM | BT-549 > 100 µM | MCF7 > 100 µM | SK-OV-3 > 100 µM | UACC-62 > 100 µM | NCI-H226 > 100 µM

CCOC(=O)c1nc2ccccc2nc1Nc1ccc(OC)cc1
inactive: SK-MEL-2 33.7 µM | Malme-3M 93.8 µM | UO-31 88.7 µM | RPMI-8226 > 100 µM | SF-295 19.5 µM | COLO 205 > 100 µM | RXF 393 17.5 µM | Hs-578T 41.2 µM | SR > 100 µM | IGROV-1 50.6 µM | OVCAR-5 83.8 µM | A498 18.6 µM | BT-549 24 µM | MCF7 > 100 µM | UACC-62 28.5 µM | NCI-H226 37.5 µM | NCI-H460 40 µM

Cc1nc(O)nc2nc3cc(Cl)cc(Cl)c3c(NC(C)(CO)CO)c12
inactive: SK-MEL-2 29.1 µM | Malme-3M > 100 µM | UO-31 91 µM | SF-295 30.3 µM | MDA-N > 100 µM | COLO 205 > 100 µM | RXF 393 27.8 µM | Hs-578T 31.6 µM | IGROV-1 35.9 µM | A498 13.6 µM | BT-549 35.6 µM | MCF7 1.55 µM | SK-OV-3 26.8 µM | UACC-62 72.3 µM | NCI-H226 > 100 µM | NCI-H460 > 100 µM

c1ccc2c(c1)CCc1c-2n(CCN2CCCCC2)c2ccccc12
inactive: SK-MEL-2 16.3 µM | Malme-3M 24.7 µM | UO-31 11.4 µM | RPMI-8226 10.3 µM | SF-295 16.9 µM | COLO 205 11.8 µM | Hs-578T 18.2 µM | SR 8.81 µM | IGROV-1 11.4 µM | OVCAR-5 15.5 µM | BT-549 17.9 µM | MCF7 15.2 µM | SK-OV-3 23.7 µM | UACC-62 14.8 µM | NCI-H226 10.9 µM | NCI-H460 15.6 µM

CC(=O)N1c2ccccc2C23CCN4CC5=CCOC(O)C(C5CC42)C13 (configuration not stated)
inactive: SK-MEL-2 > 100 µM | Malme-3M > 100 µM | UO-31 > 100 µM | RPMI-8226 > 100 µM | SF-295 > 100 µM | MDA-N > 100 µM | COLO 205 > 100 µM | Hs-578T > 100 µM | IGROV-1 > 100 µM | OVCAR-5 > 100 µM | A498 > 100 µM | BT-549 > 100 µM | MCF7 > 100 µM | SK-OV-3 > 100 µM | UACC-62 > 100 µM | NCI-H226 > 100 µM | NCI-H460 > 100 µM

CCC[C@@H](O)C[C@@H]1CCC[C@H](C[C@@H](O)CC)N1C
inactive: SK-MEL-2 > 100 µM | UO-31 > 100 µM | RPMI-8226 > 100 µM | SF-295 > 100 µM | MDA-N > 100 µM | COLO 205 > 100 µM | SR > 100 µM | IGROV-1 > 100 µM | OVCAR-5 > 100 µM | A498 > 100 µM | BT-549 76.4 µM | MCF7 > 100 µM | SK-OV-3 > 100 µM | UACC-62 > 100 µM | NCI-H226 > 100 µM

C(=N\OCCc1ccccc1)/c1cccnc1
inactive: SK-MEL-2 > 100 µM | Malme-3M > 100 µM | UO-31 > 100 µM | RPMI-8226 > 100 µM | SF-295 > 100 µM | MDA-N > 100 µM | COLO 205 > 100 µM | RXF 393 > 100 µM | Hs-578T > 100 µM | IGROV-1 > 100 µM | OVCAR-5 > 100 µM | BT-549 > 100 µM | MCF7 > 100 µM | SK-OV-3 > 100 µM | UACC-62 > 100 µM | NCI-H226 > 100 µM | NCI-H460 > 100 µM
